This note sets out measurements from patent publication US20260098043A1, “POLYCYCLIC COMPOUND AND USE THEREOF” (HAINAN SIMCERE ZAIMING PHARMECEUTICAL CO., LTD., priority 2022, published 2026).

For one experiment, the target named is T1, human Cereblon WT (Homo sapiens, UniProt Q96SW2).
T1 construct: purchased
Description: Cereblon binding experiment (HTRF Human Cereblon Binding Kit, competition with XL665-labeled lenalidomide tracer). The conditions noted are these: 3 h incubation at room temperature, 100% inhibition = 200 μM lenalidomide, read-out: IC50 (binding ability to Cereblon). An excerpt: The detection kit (HTRF Human Cereblon Binding Kits) used in the experiment was a detection method for the quantitative measurement of Cereblon WT ligands using HTRF® technology. The detection principle was based on HTRF technology, where the specifically labeled GST antibody (Euroum Cryptate, donor) simultaneously bound to the GST-labeled human Cereblon WT ligand and the XL665-labeled lenalidomide tracer (acceptor). The donor was excited by a light source to induce fluorescence resonance energy transfer (FRET) to the acceptor, and the acceptor emitted fluorescence at a specific wavelength of 665 nm. After the addition of a compound, the compound competed with the XL665-labeled lenalidomide to prevent FRET from occurring. […]
The compounds of the present disclosure were dissolved in DMSO at a stock concentration of 10 mM. […] The HTRF signal in each well was measured using an Envision plate reader. […]
The ratio of acceptor to donor emission signals was calculated for each well: […]
(§1) Data analysis was performed by GraphPad Prism 9. The concentration-response curves were obtained using non-linear four-parameter fitting, and the IC50 for the compound was calculated: […]
The binding ability of the compounds of the present disclosure to Cereblon was determined through the above test, and the measured IC50 values were shown in Table 1.

The next experiment deals with MV-4-11 cells. Description: Antiproliferative activity for MV-4-11 cells (CellTiter-Glo, 3 days). The experiment is classed as cell-based. The conditions noted are these: Homo sapiens, MV4-11, 72 h, read-out: IC50 (antiproliferative activity for MV-4-11 cells). The protocol:
The medium of the target cells MV-4-11 (CBP60522, Cobioer) was removed, and PBS was added for rinsing once, followed by digestion with trypsin (Trypsin-EDTA (0.25%)) for 5 min. After the digestion, 10 mL of a complete medium (IMDM+10% FBS) was added to neutralize the trypsin. The cells were then pipetted and collected, centrifuged at 1000 rpm for 5 min, and counted. The cell density was adjusted to 30,000 cells/mL. 90 μL of the cell suspension was added to a 96-well low-adsorption plate. 200 μL of PBS was added to the edge wells of the 96-well plate. The plate was centrifuged at 1000 rpm for 5 min to form cell spheroids, which were then incubated in a cell incubator overnight. […]
The cells were removed from the incubator and allowed to return to room temperature within 30 min. 50 μL of the CellTiter-Glo® Cell Viability Assay reagent was added, and the plate was shaken to mix thoroughly for 10 min before it was read on the Envision microplate reader.
The antiproliferative activity of the compounds of the present disclosure for MV-4-11 cells was determined through the above test, and the cell growth inhibition rate for each sample well was calculated based on the raw data.
as §1

For the next experiment, the target named is T2, BRD4 (Homo sapiens, UniProt O60885).
T2 construct: The degradation activity for BRD4 proteins in MV-4-11 cells; host or cells: MV-4-11
Description: Degradation activity for BRD4 proteins in MV-4-11 cells (Western blot, 6 h). It is filed as cell-based. The conditions noted are these: for DC50: read-out: DC50 of BRD4 protein degradation. The protocol:
The medium of MV-4-11 (CBP60522, Cobioer) was removed, and PBS was added for rinsing once, followed by digestion with trypsin (Trypsin-EDTA (0.25%)) for 5 min. After the digestion, 10 mL of a complete medium (an IMDM medium containing 10% FBS) was added to neutralize the trypsin. The cells were then pipetted and collected, centrifuged at 1000 rpm for 5 min, and counted. The cell density was adjusted to 500,000 cells/mL. 2 mL of the cell suspension was added to a 12-well plate, and the plate was incubated in a cell incubator overnight.
The compounds of the present disclosure were dissolved in DMSO at a stock concentration of 10 mM. The compound stock solution was subjected to gradient dilution (4-fold dilution), resulting in 8 concentration points. DMSO was used as the negative control group, and the DMSO content was 0.1%. After mixing the compound with the cell suspension thoroughly, the mixture was incubated at 37° C. with 5% CO2 for 6 h.
Six hours after drug treatment, the supernatant was discarded, and the cells were washed with 1000 μL of pre-cooled PBS. 100 μL of RIPA lysis buffer (25 mM Tris-HCl, pH=7.5, 150 mM NaCl, 1% NP-40, 1 mM EDTA, pH=8.0, 1 mM PMSF, 1 mM Na3VO4, and 1× Protease Inhibitor Cocktail-P2714, Sigma) was added and placed on ice for lysis for 10 min. The lysed cell samples were collected and centrifuged at 12000 rpm at 4° C. for 30 min. The concentration of each protein sample was determined using the Pierce BCA kit for protein quantification. An appropriate amount of 5×SDS-PAGE protein loading buffer was added to the collected protein samples, and the mixtures were then heated in a metal bath at 100° C. for 10 min to fully denature the proteins. The protein samples were loaded into the SDS-PAGE gel loading wells and electrophoresed at a constant voltage of 120 V for 60 min. After the electrophoresis, the gel was transferred to a PVDF membrane using a Bio-bad transfer apparatus. After the transfer, the band was cut according to the size of the target protein and blocked with 5% BSA (prepared by dissolving 5 g of BSA in 100 mL of TBST) at room temperature for 1 h. […] The proteins were detected using the SuperSignal West Atto ultra-sensitive ECL luminescent liquid.
The degradation activity for BRD4 proteins in MV-4-11 cells by the compounds of the present disclosure was determined through the above test. The gray values of the target sample bands were read using Image J software, and the protein degradation rate for each sample well was calculated based on the raw data.
[formula] • wherein: • All raw data were processed for data analysis using GraphPad Prism 9. The concentration-response curves were obtained using non-linear four-parameter fitting, and the DC50 for the compound was calculated: […]
In general terms: Immunoblotting shows a protein as a band on a membrane.

[1] abbreviates: MV-4-11 cells, 6 h, Western blot.

pIC50: −log10 of the molar value. Read-outs that look alike come from different tables or passages of the source.

As for `Cn1c(=O)n(C2CCC(=O)NC2=O)c2ccc3ccccc3c21` (centres unmarked) [Compound 1, 3-(1-methyl-2-oxo-1,2-dihydro-3H-naphtho[1,2-d]imidazol-3-yl)piperidine-2,6-dione], the pIC50 on human Cereblon WT is 6.73.

For `Cc1sc2c(c1C)C(c1ccc(Cl)cc1)=N[C@@H](CC(=O)NCCCCCC(=O)NCc1ccc3ccc4c(c3c1)n(C)c(=O)n4C1CCC(=O)NC1=O)c1nnc(C)n1-2` (stereo partly drawn) [Compound 2, 6-(2-((S)-4-(4-chlorophenyl)-2,3,9-trimethyl-6H-thieno[3,2-f][1,2,4]triazolo[4,3-a][1,4]diazepin-6-yl)acetamido)-N-((3-(2,6-dioxopiperidin-3-yl)-1-methyl-2-oxo-2,3-dihydro-1H-naphtho[1,2-d]imidazol-8-yl)methyl)hexanamide], the negative-log IC50 (pIC50) in the experiment with MV-4-11 cells was 8.42. Moreover, the Dmax on BRD4 (MV4-11, read-out: Maximum degradation rate (%) of BRD4 protein) was found to be 85.6%. Moreover, the DC50 on BRD4 (setting [1]) is 2.19 nM.

Regarding `Cc1sc2c(c1C)C(c1ccc(Cl)cc1)=N[C@@H](CC(=O)NCCCCCC(=O)NCc1cccc3c1ccc1c3n(C)c(=O)n1C1CCC(=O)NC1=O)c1nnc(C)n1-2` (stereo partly drawn) [Compound 3, 6-(2-((S)-4-(4-Chlorophenyl)-2,3,9-trimethyl-6H-thieno[3,2-f][1,2,4]triazolo[4,3-a][1,4]diazepin-6-yl)acetamido)-N-((3-(2,6-dioxopiperidin-3-yl)-1-methyl-2-oxo-2,3-dihydro-1H-naphtho[1,2-d]imidazol-6-yl)methyl)hexanamide], the pIC50 in the experiment with MV-4-11 cells (MV-4-11 cells, 3 days, CellTiter-Glo) is 7.85. On BRD4 (MV4-11, MV-4-11 cells, 6 h, Western blot, read-out: Maximum degradation rate (%) of BRD4 protein), the Dmax amounted to 74.3%. Moreover, the DC50 at BRD4 (setting [1]) is 11.2 nM.

Turning to `Cn1c(=O)n(C2CCC(=O)NC2=O)c2ccc3c(c21)CNCC3` (centres unmarked) [Compound 8, 3-(1-methyl-2-oxo-1,2,6,7,8,9-hexahydro-3H-imidazo[4,5-h]isoquinolin-3-yl)piperidine-2,6-dione, reference compound], the pIC50 on human Cereblon WT is 5.06.

In general, pIC50 refers to the IC50 on a negative log10 scale, so that one unit is a factor of ten. For orientation: DC50 means the midpoint of the concentration-degradation curve.
